Results from patent US10117878B2, “Ligands for nematode nuclear receptors and uses thereof” (priority 2006, dated 2018).

How the values were obtained:
[1] = biological target: T1, GAL4-DAF-12 (Caenorhabditis elegans, UniProt G5EFF5); test: Co-transfection assay: GAL4-DAF-12 and GAL4-responsive luciferase reporter in HEK293 cells; format: cell-based, C. elegans; settings: for Activation of DAF-12, initial compound screen: bile acids 10 μM with IBAT co-transfected, assays in the presence or absence of co-transfected DAF-9; for DAF-9 independent activation of GAL4-DAF-12 (in words): 10 μM sterol, without DAF-9
T1 construct: 184-754aa (DAF-12); expressed in transfected cells; host or cells: HEK293
T1 sequence (G5EFF5 184-753): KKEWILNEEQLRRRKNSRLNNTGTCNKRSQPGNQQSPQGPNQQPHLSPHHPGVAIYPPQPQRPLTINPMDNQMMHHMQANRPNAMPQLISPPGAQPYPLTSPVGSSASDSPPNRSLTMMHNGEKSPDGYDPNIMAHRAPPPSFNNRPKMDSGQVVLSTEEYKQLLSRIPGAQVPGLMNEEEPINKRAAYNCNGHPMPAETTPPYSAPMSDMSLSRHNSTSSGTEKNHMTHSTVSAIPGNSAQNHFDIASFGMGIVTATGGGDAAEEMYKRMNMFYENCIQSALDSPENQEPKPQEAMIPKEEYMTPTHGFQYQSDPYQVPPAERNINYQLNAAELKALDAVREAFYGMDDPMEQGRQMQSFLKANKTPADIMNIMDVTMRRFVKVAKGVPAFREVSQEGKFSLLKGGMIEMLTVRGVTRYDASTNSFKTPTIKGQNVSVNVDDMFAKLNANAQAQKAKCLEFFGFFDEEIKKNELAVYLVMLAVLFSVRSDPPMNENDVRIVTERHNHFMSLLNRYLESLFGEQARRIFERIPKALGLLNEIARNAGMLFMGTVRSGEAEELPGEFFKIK

[2] = biological target: DAF-12 ligand binding domain (Caenorhabditis elegans, UniProt G5EFF5); settings: 1 μM sterol
DAF-12 ligand binding domain, sequence (G5EFF5 507-753): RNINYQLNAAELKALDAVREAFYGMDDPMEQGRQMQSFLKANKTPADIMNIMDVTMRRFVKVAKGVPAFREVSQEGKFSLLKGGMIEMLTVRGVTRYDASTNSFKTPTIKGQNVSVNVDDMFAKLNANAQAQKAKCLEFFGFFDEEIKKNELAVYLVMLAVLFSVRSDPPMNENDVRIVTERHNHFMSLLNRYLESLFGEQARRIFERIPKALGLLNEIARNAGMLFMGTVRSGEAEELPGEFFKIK

[3] = test system: daf-9(dh6) null worms; test: Rescue of daf-9 null worms by extracts of sterols incubated with DAF-9 or control microsomes; settings: for complete rescue of Daf-c and Mig phenotypes, animals tested: DAF-9 microsome reactions (100 μM sterol) diluted 8-fold
Procedure: Microsomes containing hOR or hOR and Daf-9 generated from Sf9 cells were thawed on ice and added to a final concentration of 0.5 mg/mL in 0.1M potassium phosphate buffer in the presence of an NADPH regenerating system (50 U/mL DL-isocitrate dehydrogenase, 0.1 M isocitrate and 0.1 M MgCl2). Substrates were added from stock solutions at 10^−2 M to a final concentration of 100 μM (final reaction volume of 0.5 mL). The mixture was preincubated for 3 min at 37° C. and the reaction was initiated by the addition of NADPH (1 mM). After 16 hrs, the reactions were stopped by extraction with 2×2 mL of methyl-tert-butyl-ether and the top layers were combined and dried under nitrogen. In some experiments, 0.5 μg of 1,4-cholestadiene-3-one was added as an internal standard for the extraction.
Individual 3-keto sterols and their respective 3β-hydroxy sterols were incubated with Sf9 cell microsomes co-expressing DAF-9 and the human P450 oxidoreductase (hOR). As a control, microsomes from cells expressing hOR alone were used.

[4] = test system: DAF-12 in the presence of DAF-9; test: Co-transfection assay: GAL4-DAF-12 reporter in HEK293 cells with co-transfected DAF-9; format: cell-based, C. elegans; settings: 10 μM sterol; fold induction of RLU compared to ethanol control
Procedure: To screen for sterol-derived ligands of DAF-12 a co-transfection assay in HEK293 cells was performed using a chimeric GAL4-DAF-12 receptor and a GAL4-responsive luciferase reporter. […] Our initial compound screen consisted of bile acids and known vertebrate steroid and endocrine hormones as these compounds are ligands for PXR, VDR and LXR, the closest vertebrate homologs of DAF-12 (Antebi et al., 2000; Mooijaart et al., 2005).

[5] = biological target: T2, human CYP27A1 (Homo sapiens, UniProt Q02318); test: Co-transfection of HEK293 cells with GAL4-DAF-12, human CYP27A1 and bovine adrenodoxin; format: cell-based; settings: sterol 25 μM; bovine adrenodoxin co-transfected
T2 construct: expressed in transfected cells; host or cells: HEK293
T2 sequence (Q02318 34-531): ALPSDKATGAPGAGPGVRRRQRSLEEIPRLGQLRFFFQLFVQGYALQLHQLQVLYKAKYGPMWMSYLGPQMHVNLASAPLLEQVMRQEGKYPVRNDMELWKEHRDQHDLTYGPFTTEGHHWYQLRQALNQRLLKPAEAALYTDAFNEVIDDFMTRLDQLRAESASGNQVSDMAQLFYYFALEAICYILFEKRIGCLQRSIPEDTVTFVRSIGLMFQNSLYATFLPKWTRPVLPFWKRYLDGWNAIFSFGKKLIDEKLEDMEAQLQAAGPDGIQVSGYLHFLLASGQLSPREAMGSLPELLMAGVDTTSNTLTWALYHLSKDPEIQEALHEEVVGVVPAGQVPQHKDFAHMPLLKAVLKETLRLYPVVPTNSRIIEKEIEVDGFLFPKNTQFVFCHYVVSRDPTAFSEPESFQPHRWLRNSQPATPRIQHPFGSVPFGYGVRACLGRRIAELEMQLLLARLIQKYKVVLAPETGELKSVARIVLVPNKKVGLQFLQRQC
Procedure: (§1) Therefore, the ability of CYP27A1 to metabolize 4-cholesten-3-one into a DAF-12 activator was tested.

[6] = biological target: T3, mouse CYP27A1 (Mus musculus, UniProt Q9DBG1); test: Co-transfection of HEK293 cells with GAL4-DAF-12, mouse CYP27A1 and bovine adrenodoxin; format: cell-based; settings: sterol 25 μM; bovine adrenodoxin co-transfected
T3 construct: expressed in transfected cells; host or cells: HEK293
T3 sequence (Q9DBG1 33-533): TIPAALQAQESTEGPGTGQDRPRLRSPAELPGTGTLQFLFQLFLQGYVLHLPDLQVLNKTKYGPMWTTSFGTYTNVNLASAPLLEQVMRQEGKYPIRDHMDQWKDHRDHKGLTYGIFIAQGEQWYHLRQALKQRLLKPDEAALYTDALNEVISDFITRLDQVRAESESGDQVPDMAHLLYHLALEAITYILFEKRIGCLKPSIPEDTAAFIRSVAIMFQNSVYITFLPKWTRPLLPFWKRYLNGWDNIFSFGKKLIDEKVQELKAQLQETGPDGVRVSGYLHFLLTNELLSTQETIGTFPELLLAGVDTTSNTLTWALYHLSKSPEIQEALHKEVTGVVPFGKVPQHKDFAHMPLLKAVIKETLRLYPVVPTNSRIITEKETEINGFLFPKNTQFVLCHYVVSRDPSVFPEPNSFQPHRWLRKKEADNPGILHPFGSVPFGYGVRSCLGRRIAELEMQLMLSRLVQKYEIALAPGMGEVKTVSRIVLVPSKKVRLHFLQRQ
Procedure: as §1

[7] = test system: daf-9(dh6) nulls; test: Rescue assay with pure steroids, daf-9(dh6) nulls; format: in vivo, C. elegans; settings: for effect of 26-hydroxy-4-cholesten-3-one on daf-9 nulls (in words): concentrations as high as 33 μM
[8] = extracts from DAF-9 microsomes incubated with 100 μM sterol
[9] = control microsome reactions (100 μM sterol) diluted 8-fold

## C=C1/C(=C\C=C2/CCC[C@]3(C)[C@@H]([C@H](C)CCCC(C)(C)O)CC[C@@H]23)C[C@@H](O)C[C@@H]1O [1,25-dihydroxyvitamin D3]
[1]
  Activation of DAF-12, initial compound screen: No other bile acids or endocrine hormones tested activated DAF-12

## C[C@H](CCC(=O)O)[C@H]1CC[C@H]2[C@@H]3CC[C@@H]4CC(=O)CC[C@]4(C)[C@H]3CC[C@]12C [3-keto-lithocholic acid]
[1]
  Activation of DAF-12, initial compound screen: weak, micromolar activator of DAF-12 independent of DAF-9

## CC(C)CCC[C@@H](C)[C@H]1CC[C@H]2[C@@H]3CCC4=CC(=O)CC[C@]4(C)[C@H]3CC[C@]12C [4-cholesten-3-one]
[2]
  binding (in words): no significant binding
[3]; [8]
  effect on daf-9 animals, DAF-9 microsomes (in words): indistinguishable from wild-type adults
  rescue of the Daf-c phenotypes: 100%
[3]; extracts from control (hOR only) microsomes incubated with 100 μM sterol
  effect on daf-9 phenotypes, control microsomes (in words): did not rescue any daf-9 phenotypes
[4]
  activation of DAF-12 upon co-transfection with DAF-9: 109 fold
[5]
  activation of GAL4-DAF-12 with co-transfected human CYP27A1: potent activation
[6]
  activation of GAL4-DAF-12 with co-transfected mouse CYP27A1: potent activation
[1]
  DAF-9 independent activation of GAL4-DAF-12 (in words): required the presence of DAF-9

## C[C@H](CCC(=O)O)[C@H]1CC[C@H]2[C@@H]3CC(=O)[C@@H]4C[C@H](O)CC[C@]4(C)[C@H]3CC[C@]12C [6-keto-lithocholic acid]
[1]
  Activation of DAF-12, initial compound screen: No other bile acids or endocrine hormones tested activated DAF-12

## C[C@H](CCC(=O)O)[C@H]1CC[C@H]2[C@@H]3C(=O)C[C@@H]4C[C@H](O)CC[C@]4(C)[C@H]3CC[C@]12C [7-keto-lithocholic acid]
[1]
  Activation of DAF-12, initial compound screen: No other bile acids or endocrine hormones tested activated DAF-12

## CC(C)(O)CC[C@@H](O)[C@](C)(O)[C@H]1CC[C@@]2(O)C3=CC(=O)[C@@H]4C[C@@H](O)[C@@H](O)C[C@]4(C)[C@H]3CC[C@]12C [20-hydroxyecdysone]
[1]
  Activation of DAF-12, initial compound screen: No other bile acids or endocrine hormones tested activated DAF-12

## C[C@@H](CO)CCC[C@@H](C)[C@H]1CC[C@H]2[C@@H]3CCC4=CC(=O)CC[C@]4(C)[C@H]3CC[C@]12C [(25R),26-hydroxy-4-cholesten-3-one]
[2]
  increase in binding units compared to vehicle control: 2 fold
[3]
  complete rescue of Daf-c and Mig phenotypes, animals tested: 100%
[3]; [9]
  daf-9 rescue by extracts from control microsome incubations (in words): had no biological effect
[1]
  EC50: 2000 nM
  DAF-9 independent activation of GAL4-DAF-12 (in words): strongly active
[7]
  effect of 26-hydroxy-4-cholesten-3-one on daf-9 nulls (in words): had no effect

## C[C@H](CO)CCC[C@@H](C)[C@H]1CC[C@H]2[C@@H]3CCC4=CC(=O)CC[C@]4(C)[C@H]3CC[C@]12C [(25S),26-hydroxy-4-cholesten-3-one]
[2]
  binding (in words): no significant binding
[3]
  complete rescue of Daf-c and Mig phenotypes, animals tested: 100%
[3]; [9]
  daf-9 rescue by extracts from control microsome incubations (in words): only an incomplete rescue
  molt defects: 10%
  sterile Mig adults: 75%
[1]
  EC50: 1000 nM
  DAF-9 independent activation of GAL4-DAF-12 (in words): strongly active
[7]
  effect of 26-hydroxy-4-cholesten-3-one on daf-9 nulls (in words): still exhibit Mig and/or molting defects, and sterility
[7]; n>60
  worms that bypass dauer: 93%

## C[C@H](CCC(=O)O)[C@H]1CC[C@H]2[C@@H]3[C@H](O)C[C@@H]4C[C@H](O)CC[C@]4(C)[C@H]3CC[C@]12C [chenodeoxycholic acid]
[1]
  Activation of DAF-12, initial compound screen: No other bile acids or endocrine hormones tested activated DAF-12
